Laboratory results taken from patent publication US7776849B2, “Benzenoid ansamycin derivative” (Kyowa Hakko Kirin Co., Ltd., priority 2005, dated 2010).

Experiments:
[1] = biological target: T1, Human N-terminal recombinant Hsp90 protein (region of amino acids 9 to 236) (Homo sapiens, UniProt P07900); assay: Hsp90 protein binding assay (competition with biotinylated Radicicol, time-resolved fluorescence); settings: immobilized Hsp90, biotinylated Radicicol 0.1 μmol/L, 24° C.; read-out: concentration inhibiting the binding of biotinylated Radicicol to the Hsp90 protein by 50% or more
T1 construct: Human N-terminal recombinant Hsp90 protein (region of amino acids 9 to 236); made in house
Experimental: Hsp90 Protein Binding Assay
Human N-terminal recombinant Hsp90 protein (region of amino acids 9 to 236) prepared according to the method described in “Cell”, 1997, Vol. 89, p. 239-250 was diluted to 1 μg/mL with Tris-buffered saline (TBS, pH 7.5) and added to each well of a 96-well ELISA assay plate (Greiner) in an amount of 70 μL/well. The plate was incubated overnight at 4° C. to obtain the solid phase.
The supernatant was removed, and Tris-buffered saline containing 1% bovine serum albumin (BSA) was added in an amount of 350 μL/well for blocking.
After the blocking solution was removed, each resulting solid phase was washed by the addition of Tris-buffered saline containing 0.05% Tween 20 (TBST) in an amount of 350 μL/well. This washing procedure was repeated three times. […]
Enhancement solution (Wallac Oy) was added thereto in an amount of 100 μL/well and color developing reaction was carried out at room temperature for 5 minutes, followed by measurement of time-resolved fluorescence (excitation wavelength: 340 nm, measurement wavelength: 615 nm) using Multilabel Counter (ARVO 1420, Wallac Oy).
The binding rate in each well treated the test compound was calculated from the time-resolved fluorescence measured for each well based on the time-resolved fluorescence measured with the positive control taken as 100% binding rate and that with the negative control taken as 0% binding rate.

[2] = system: human chronic myelocytic leukemia K562 cells; assay: Growth inhibition test on human chronic myelocytic leukemia K562 cells (WST-1); type: cell-based; settings: 72 hours, read-out: 50% growth inhibitory concentration (GI50)
Experimental: Growth Inhibition Test on Human Chronic Myelocytic Leukemia K562 Cells
First, 1,500 cells of human chronic myelocytic leukemia K562 were inoculated into each well of a 96-well microplate (manufactured by Nunc Corp.), and using RPMI1640 medium containing 10% fetal calf serum (FCS), preculturing was performed in a 5% carbon dioxide incubator at 37° C. for 5 hours. A DMSO solution of each test compound prepared in a concentration of 10 mmol/L was stepwise diluted with the culture medium and added thereto in a total amount of 100 μL/well. The resulting wells were further cultured in the 5% carbon dioxide incubator at 37° C. for 72 hours. […] Using a microplate spectrophotometer (SpectraMax 340PC384; manufactured by Molecular Devices), the absorbance of each well was measured at 450 nm and 655 nm. […] The value obtained by subtracting the absorbance at 655 nm from the absorbance at 450 nm (absorbance difference) was calculated for each well. The absorbance difference obtained from cells untreated with any of the test compounds was designated as 100%. The absorbance difference obtained from cells treated with the compounds at the test concentrations was compared. […]

Row | IC50 [1] | GI50 [2] | SMILES
1 | ≤ 10 µM | – | COC1/C=C\C=C(/C)C(=O)Nc2cc(O)cc(c2O)C(OC)C(C)CC(OC)C(OC)C(C)/C=C(\C)C1OC(N)=O (stereo not drawn) [Compound 1]
2 | ≤ 10 µM | ≤ 10 µM | COC1C=CC=C(C)C(=O)Nc2cccc(c2O)C(OC)C(C)CC(OC)C(OC)C(C)C=C(C)C1OC(N)=O (stereo not drawn) [Compound 2]
